# Tests used:
# Assay in all cases: relative viability (nuclei count vs DMSO), 5 days (fraction); higher = more cells survive
# [1] = compound: C[C@]12O[C@H](C[C@]1(O)CO)n1c3ccccc3c3c4c(c5c6ccccc6n2c5c31)CNC4=O [Lestaurtinib] + Cc1cc(Nc2cc(N3CCN(C)CC3)nc(Sc3ccc(NC(=O)C4CC4)cc3)n2)n[nH]1 [Tozasertib] (partner 0.1 µM)
# Method in brief: (§1)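 Each reported value is a median over duplicate plates. It expresses relative viability: treated-well nuclei count divided by vehicle-well nuclei count. Lung cancer cell lines in 1536-well plates were dosed by pin tool a day after seeding, alone with one drug or with a fixed anchor-drug dose plus five library-drug doses (not always all listed) in √10 steps, and nuclei were counted after 5 days.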
# [2] = compound: C1/C(=C\C2=CC=CS2)/C(=O)/C(=C/C3=CC=CS3)/C1 + COc1cccc2cc(-c3nc([C@H]4CC[C@H](C(=O)O)CC4)n4ncnc(N)c34)[nH]c12 [OSI-027] (partner 0.5 µM)
# Method in brief: as §1
# [3] = compound: C[C@]12O[C@H](C[C@]1(O)CO)n1c3ccccc3c3c4c(c5c6ccccc6n2c5c31)CNC4=O [Lestaurtinib] + C[C@]1(O)C[C@@H](c2nc(-c3ccc4ccc(-c5ccccc5)nc4c3)c3c(N)nccn32)C1 [Linsitinib] (partner 1 µM)
# Method in brief: as §1
# [4] = compound: C1/C(=C\C2=CC=CS2)/C(=O)/C(=C/C3=CC=CS3)/C1 + CC(=O)Nc1cccc(-n2c(=O)n(C3CC3)c(=O)c3c(Nc4ccc(I)cc4F)n(C)c(=O)c(C)c32)c1 [Trametinib] (partner 0.02 µM)
# Method in brief: as §1
Cell Line,relative viability ([1]; first compound 0.005 µM),relative viability ([1]; first compound 0.01581 µM),relative viability ([1]; first compound 0.05 µM),relative viability ([1]; first compound 0.1581 µM),relative viability ([1]; first compound 0.5 µM),relative viability ([2]; first compound 0.2 µM),relative viability ([2]; first compound 0.6325 µM),relative viability ([2]; first compound 2 µM),relative viability ([2]; first compound 20 µM),relative viability ([3]; first compound 0.005 µM),relative viability ([3]; first compound 0.01581 µM),relative viability ([3]; first compound 0.05 µM),relative viability ([3]; first compound 0.1581 µM),relative viability ([3]; first compound 0.5 µM),relative viability ([4]; first compound 0.2 µM),relative viability ([4]; first compound 0.6325 µM),relative viability ([4]; first compound 2 µM),relative viability ([4]; first compound 6.325 µM),relative viability ([4]; first compound 20 µM),relative viability ([2]; first compound 6.325 µM)
NCI-H2347,1.15,0.64,0.493,0.412,0.537,0.482,0.391,0.429,0.389,1.06,1.05,0.86,0.575,0.55,0.273,0.271,0.27,0.26,0.28,
NCI-H2405,0.797,0.814,0.78,0.511,0.271,0.619,0.633,0.705,0.624,0.934,0.703,0.674,0.612,0.241,0.688,0.578,0.603,0.585,0.699,0.497
NCI-H3122,0.56,0.553,0.421,0.366,0.176,1.17,0.956,1,1.01,1.11,1.09,1.01,1.08,0.527,0.25,0.222,0.226,0.233,0.251,0.889
PC-3 [JPC-3],0.87,0.998,0.765,0.777,0.587,0.774,0.715,0.719,0.778,1.02,0.954,0.951,0.87,1,,0.731,0.753,0.613,0.759,0.552
PC-14,0.639,0.668,0.674,0.546,0.163,0.916,0.854,0.805,0.766,0.933,1.04,0.543,0.613,0.578,0.792,0.829,0.761,0.696,0.663,0.749
RERF-LC-KJ,0.489,0.592,0.44,0.433,0.284,0.528,0.659,0.71,0.545,0.964,0.946,0.535,0.619,0.516,0.924,0.879,0.846,0.741,0.739,0.539
SK-LU-1,0.288,0.349,0.267,0.293,0.204,0.36,0.388,0.398,0.396,0.883,0.686,0.537,0.505,0.261,0.563,0.503,0.536,0.411,0.489,0.315
SK-MES-1,0.966,0.834,0.341,0.455,0.197,0.598,0.689,0.627,0.616,1.04,1.06,0.501,0.485,0.317,0.601,0.58,0.549,0.502,0.568,0.55
SW 1573,0.146,0.172,0.142,0.1,0.116,0.603,0.724,0.756,0.617,0.796,0.841,0.695,0.615,0.222,0.637,0.573,0.674,0.491,0.596,0.599
